Laboratory results published in US8710102B2, “Use of beta-adrenoceptor antagonists for the manufacture of a medicament of the treatment of disorders of the outer retina” (Novartis AG, priority 1999, dated 2014).

What was measured:
Male Sprague Dawley rats [1] = assay: Photo-oxidative (blue-light) induced retinopathy, systemic IP dosing, ERG; conditions: for Protection of retina function against light-induced retinal degeneration: 20 and 40 mg/kg IP; for Persistence of protection after a 4-week recovery period: IP dosing
Description: The purpose of Experiment 1 was to determine if selective β-adrenoceptor antagonists, in particular betaxolol (racemic), levobetaxolol (S-isomer), and betaxolol (R-isomer) are neuroprotective and can rescue retinal cells from a photo-oxidative induced retinopathy. The purpose of Experiment 2 was to determine the dose-dependent efficacy of timolol, a potent non-selective β1- and β2-blocker, in this photo-oxidative stress model. Male Sprague Dawley rats were randomly assigned to drug or vehicle experimental groups. Rats received three intraperitoneal (IP) injections of either vehicle or drug at 48, 24, and 0 hours prior to a 6-hour light exposure to spectrally filtered blue light (˜220 fc). Control rats were housed in their home cage under normal cyclic light exposure. Control rats were not dosed with either vehicle or drug. The ERG is a non-invasive clinical measurement of the electrical response of the eye to a flash of light. The a-wave and b-wave are two components of the ERG that are diagnostic of retinal function. The a-wave reflects outer retina function and is generated by interactions between photoreceptor and RPE while the b-wave reflects inner retina function, particularly on-bipolar cells. […] Changes in the a-wave amplitude or latency are diagnostic of outer retina pathology. The ERG was recorded after a five day recovery period from dark-adapted anesthetized rats (ketamine-HCl, 75 mg/Kg; xylazine, 6 mg/Kg). The eye's electrical response to a flash of light was elicited by viewing a ganzfeld. ERGs to a series of light flashes increasing in intensity were digitized to analyze temporal characteristics of the waveform and response voltage-log intensity relationship.

rabbit inner retina = conditions: in vitro; literature; cited from earlier work
Male Sprague Dawley rats [2] = conditions: 0.5% topical ocular b.i.d.; for Protection of retinal function compared to vehicle dosed rats: two drops per eye, 17 days before and 2 days after light exposure, ERG five days after
Procedure: The purpose of this experiment was to determine the degree of retinal protection that could be measured in rats following topical ocular dosing. Levobetaxolol (0.5%), (racemic) betaxolol (0.5%), and vehicle were evaluated in the photic retinopathy model. Induction of photochemical lesions and evaluation of retinal function with the ERG were performed as described in the photo-oxidative induced retinopathy paradigm used in Example 1.
Male Sprague Dawley rats were randomly assigned to either a vehicle dosed group (N=10), (racemic) betaxolol (0.5%) dosed group (N=10) or levobetaxolol (0.5%) dosed group (N=10). Rats were dosed topical ocular (b.i.d.) with two drops per eye. Rats were pre-dosed for 17 days prior to light exposure and dosed an additional two days after the light exposure. Control rats (N=4) were housed in their home cage under normal cyclic light exposure.

[3] = system: rat ischemia/reperfusion injury model; conditions: literature; cited from earlier work
cortical cultures = conditions: in vitro; literature; cited from earlier work
chick retinal cells = conditions: in vitro; literature; cited from earlier work
[4] = Light damage paradigms: prevention of light-induced functional or morphological changes; format: in vivo; conditions: applicant's light damage paradigms
[5] = system: P23H mutant rhodopsin transgenic rats
Procedure: The P23H rhodopsin mutated transgenic rat has a specific rhodopsin mutation that has been identified in subsets of patients with RP. This degeneration is characterized by a slow degeneration of retinal photoreceptors and marked reduction in the electroretinogram. As in light damage, photoreceptor loss is primarily through an apoptotic process.
At the time of weaning, rats are randomly assigned to either a drug or vehicle group. Rats were dosed (oral gavage) with vehicle or levobetaxolol (40 mg/kg,) every other day. […] ERGs were recorded as described in Example 1.

CNTF mRNA = assay: Retinal CNTF mRNA upregulation, Northern blot after single IP injection; conditions: single IP injection 20 mg/kg; retina harvested after 12 hours in the dark; CNTF/18S
bFGF mRNA = assay: Retinal bFGF mRNA upregulation, Northern blot after single IP injection; conditions: single IP injection 20 mg/kg; retina harvested after 12 hours in the dark; bFGF/18S

## CC(C)NCC(O)COc1ccc(CCOCC2CC2)cc1 (racemic) [betaxolol (racemic), betaxolol]
Male Sprague Dawley rats [1]; 20 mg/kg IP at 48, 24, 0 h before 6-hour blue light, 5-day recovery
  Maximum a-wave response amplitude, fold higher than vehicle dosed rats: 1.9 fold
Male Sprague Dawley rats [1]; 40 mg/kg IP at 48, 24, 0 h before 6-hour blue light, 5-day recovery
  Maximum a-wave response amplitude, fold higher than vehicle dosed rats: 2.1 fold
Male Sprague Dawley rats [1]; 5-day recovery
  Protection of retina function against light-induced retinal degeneration: dose-dependent protection
Rabbit inner retina
  Changes in GABA immunoreactivity following glucose-oxygen deprivation: partially inhibited
Male Sprague Dawley rats [2]
  ERG response amplitudes vs vehicle dosed rats: higher but not significantly different
  Protection of retinal function compared to vehicle dosed rats: No significant protection
[3]
  ERG b-wave deficit after ischemia/reperfusion: protected
Cortical cultures
  Glutamate-induced release of lactate dehydrogenase: partially prevented
Chick retinal cells
  Kainate induced elevation of intracellular calcium: prevent

## CC(C)NCC(O)COc1ccc(CCOCC2CC2)cc1 (stereo not drawn) [Betaxolol (R-isomer), betaxolol]
Male Sprague Dawley rats [1]; 5-day recovery
  Protection of retina function against light-induced retinal degeneration: Partial but significant protection
Male Sprague Dawley rats [1]; 20 or 40 mg/kg IP
  ERGs, % of normal: approximately 64%
Male Sprague Dawley rats [1]
  Persistence of protection after a 4-week recovery period: persisted

## Fc1ccc(C(c2ccc(F)cc2)N2CCN(C/C=C/c3ccccc3)CC2)cc1 [flunarizine]
[4]
  Effectiveness in preventing light-induced functional or morphological changes: moderately effective

## COCCOC(=O)C1=C(C)NC(C)=C(C(=O)OC(C)C)C1c1cccc([N+](=O)[O-])c1 (stereo not shown) [nimodipine]
[4]
  Effectiveness in preventing light-induced functional or morphological changes: no effect

## CC(C)NC[C@H](O)COc1ccc(CCOCC2CC2)cc1 [levobetaxolol]
Male Sprague Dawley rats [1]; 20 mg/kg IP, 5-day recovery
  ERG amplitude relative to vehicle-dosed rats: twice
  ERG amplitudes, % of normal: 69%
Male Sprague Dawley rats [1]; 40 mg/kg IP, 5-day recovery
  Protection of the retinal response to a flash of light: Complete protection
Male Sprague Dawley rats [1]; 5-day recovery
  Protection of retina function against light-induced retinal degeneration: significant protection
Male Sprague Dawley rats [1]
  Persistence of protection after a 4-week recovery period: persisted
Male Sprague Dawley rats [2]
  Amelioration of photic induced retinopathy (retinal function vs control rats): completely to ameliorated
  Protection of retinal function compared to vehicle dosed rats: significant protection
[5]; 40 mg/kg oral every other day, 6-month old rats
  Outer retinal function, % better than vehicle dosed rats: 32%
[5]; 40 mg/kg oral gavage every other day, 3- and 6-month old rats
  Loss of retinal function compared to vehicle dosed rats: significantly attenuated
CNTF mRNA
  CNTF mRNA expression upregulation, factor compared to background expression: 2.3
bFGF mRNA
  Increase in bFGF mRNA expression: 13 fold

## Brc1c(NC2=NCCN2)ccc2nccnc12 [brimonidine]
CNTF mRNA
  CNTF mRNA expression upregulation, factor compared to background expression: not upregulated
bFGF mRNA
  Increase in bFGF mRNA expression: 14 fold

## Cc1c(C)c2c(c(C)c1O)CC[C@@](C)(CCC[C@H](C)CCC[C@H](C)CCCC(C)C)O2 [alpha-tocopherol]
[4]
  Effectiveness in preventing light-induced functional or morphological changes: ineffective
